Data published in US6656937B2, “Substituted glutarimides and their use as inhibitors of IL-12 production” (Gruenenthal, GmbH, priority 2000, dated 2003).
≈ marks a conversion by molar mass, not a printed value. Where a name gives a salt, the structure may show the parent alone.

Experiments:
[1] = test system: IL-12 production by LPS-activated monocytes; assay: Stimulation of human monocytes with lipopolysaccharide for secretion of IL-12 (IL-12 sandwich ELISA of culture supernatants); format: cell-based; conditions: CD14-positive human monocytes, 1 h preincubation with test substance, 20 μg/ml LPS from E. coli, 24 hours; for IC50: Monocyte, read-out: Inhibition of IL-12 production IC50
Description: Human monocytes were isolated from peripheral blood mononuclear cells (PBMC) obtained by means of a Ficoll density-gradient centrifugation of heparinized whole blood. To this end, the PBMC were incubated with a monoclonal antibody directed against the monocyte-specific surface molecule CD14 and to which superparamagnetic microbeads (Miltenyi Biotech, Bergisch Gladbach) are coupled. In order for the marked monocytes to be positively selected from the mixture of cells in the PBMC, the total cell suspension was transferred to a column with a ferromagnetic carrier matrix and the column placed in a magnetic field. This caused the cells loaded with microbeads to be bonded to the carrier matrix, whilst unmarked cells passed through the column and were discarded. After removing the matrix from the magnetic field, the antibody-loaded cells were eluted by rinsing the now demagnetised column with buffer. The purity of this CD 14-positive monocyte population thus obtained was around 95 to 98%. These monocytes were incubated in a density of 10^6 cells/ml culture medium (RPMI, supplemented with 10% fetal calf serum) with the test substances dissolved in DMSO for one hour at 37° C. and 5% CO2.20 μg/ml LPS from E. coli were then added. After 24 hours, cell-free culture supernatants were taken and tested for their IL-12 content.
The concentration of IL-12 in the cell culture supernatants was determined by means of sandwich ELISA using two anti-IL-12 monoclonal antibodies (Biosource Europe, Fleurus, Belgium). A reference standard curve with human IL-12 was included. The detection limit of the IL-12 ELISA was 10 pg/ml.

Compound	Inhibition of IL-12 production IC50 [1] [µg/mL]	Inhibition of IL-12 production Maximum (%) [1] [%]	melting point	IC50 [1] [µg/mL]
2-[(3S)-(2,6-dioxopiperidin-3-ylamino)methyl]benzyl benzoate [Example 9.2]	1.5	82	–	–
Cc1ccc(CNC2CCC(=O)NC2=O)cc1 (racemic) (as salt: hydrochloride) [Example 2.38, 3-(4-methylbenzylamino) piperidine-2,6-dione]	–	–	256 °C (dec.)	–
CCOc1ccccc1CNC1CCC(=O)NC1=O (racemic) (as salt: hydrochloride) [Example 2.39, 3-(2-ethoxybenzylamino) piperidine-2,6-dione]	–	–	208 to 212 °C	–
O=C1CCC(NCc2cc(Cl)ccc2Cl)C(=O)N1 (racemic) (as salt: hydrochloride) [Example 2.40, 3-(2,5-dichlorobenzylamino) piperidine-2,6-dione]	–	–	242 to 246 °C	–
COc1cccc(CNC2CCC(=O)NC2=O)c1 (racemic) (as salt: hydrochloride) [Example 2.41, 3-(3-methoxybenzylamino) piperidine-2,6-dione]	–	–	217 to 219 °C	–
O=C1CCC(NCc2ccc3ccccc3c2)C(=O)N1 (racemic) [Example 2.12, 3-[(naphth-2-ylmethyl)amino]piperidine-2,6-dione]	–	–	120 to 125 °C (dec.)	–
CN(Cc1cccc2ccccc12)C1CCC(=O)NC1=O (racemic) [Example 4.5, 3-(methylnaphth-1-ylmethylamino) piperidine-2,6-dione]	–	–	157 to 162 °C	–
O=C1CC[C@H](NCc2ccccc2C(=O)O)C(=O)N1 [Example 6.1, 2-[(3S)-(2,6-dioxopiperidin-3-ylamino)methyl]benzoic acid]	–	85	–	1 (≈ 3.81 µM)
O=C1CC[C@@H](NCc2ccccc2C(=O)O)C(=O)N1 [Example 6.2, 2-[(3R)-(2,6-dioxopiperidin-3-ylamino)methyl]benzoic acid]	–	75	–	1 (≈ 3.81 µM)
CCN(CC)C(=O)c1ccccc1CN[C@H]1CCC(=O)NC1=O [Example 7, 2-[(3S)-(2,6-dioxopiperidin-3-ylamino)methyl]-N,N-diethylbenzamide]	–	90	–	1.5 (≈ 4.73 µM)
O=C1CC[C@H](NCc2ccccc2C(=O)N2CCOCC2)C(=O)N1 [Example 8.1]	1.8	90	–	–
NC(=O)c1ccccc1CN[C@H]1CCC(=O)NC1=O [Example 8.3, 2-[(3S)-(2,6-dioxopiperidin-3-ylamino)methyl]benzamide]	–	90	–	0.15 (≈ 0.574 µM)
CCNC(=O)c1ccccc1CN[C@H]1CCC(=O)NC1=O [Example 8.4, 2-[(3S)-(2,6-dioxopiperidin-3-ylamino)methyl]-N-ethyl benzamide]	0.9	80	–	–
O=C1CC[C@H](NCc2ccccc2C(=O)N2CCCC2)C(=O)N1 [Example 8.5]	2.0	80	–	–
NNC(=O)c1ccccc1CN[C@H]1CCC(=O)NC1=O [Example 8.6, 2-[(3S)-(2,6-dioxopiperidin-3-ylamino)methyl]benzoic acid hydrazide]	–	90	–	0.04 (≈ 0.145 µM)
O=C1CC[C@H](NCc2ccccc2C(=O)Nc2ccccc2)C(=O)N1 [Example 8.7, 2-[(3S)-(2,6-dioxopiperidin-3-ylamino)methyl]-N-phenylbenzamide]	–	55	–	0.7 (≈ 2.07 µM)
O=C1CC[C@@H](NCc2ccccc2C(=O)Nc2ccccc2)C(=O)N1 [Example 8.10, 2-[(3R)-(2,6-dioxopiperidin-3-ylamino)methyl]-N-phenyl benzamide]	–	50	–	–
CCN(CC)C(=O)c1ccccc1CN[C@@H]1CCC(=O)NC1=O [Example 8.11, 2-[(3R)-(2,6-dioxopiperidin-3-ylamino)methyl]-N,N-diethyl benzamide]	0.2	90	–	–
NC(=O)c1ccccc1CN[C@@H]1CCC(=O)NC1=O [Example 8.12, 2-[(3R)-(2,6-dioxopiperidin-3-ylamino)methyl]benzamide]	–	84	–	1 (≈ 3.83 µM)

Compound	Inhibition of IL-12 production IC50 [1] [µg/mL]	Inhibition of IL-12 production Maximum (%) [1] [%]	melting point	IC50 [1] [µg/mL]
COC(=O)c1ccccc1CN[C@H]1CCC(=O)NC1=O [Example 9.1, 2-[(3S)-(2,6-dioxopiperidin-3-ylamino)methyl]methyl benzoate]	0.1	90	–	–
O=C1CCC(CNc2ccc(Br)cc2)C(=O)N1 (stereo not drawn) [Example 11.1, 3-[(4-bromophenylamino)methyl]piperidine-2,6-dione]	–	–	149 to 150 °C	–
O=C1CCC(CNc2cccc(C(F)(F)F)c2)C(=O)N1 (stereo not drawn) [Example 11.2, 3-[(3-trifluoromethylphenylamino)methyl]piperidine-2,6-dione]	–	–	135 to 138 °C	–
O=C1CCC(CNc2cccc3ccccc23)C(=O)N1 (stereo not drawn) [Example 11.3, 3-(naphth-1-ylaminomethyl) piperidine-2,6-dione]	–	–	145 to 148 °C	–
O=C1CCC(CNc2ccc(-c3ccccc3)cc2)C(=O)N1 (stereo not drawn) [Example 11.4, 3-(biphenyl-4-ylaminomethyl) piperidine-2,6-dione]	–	–	135 to 138 °C	–
O=C1CCC(CNc2ccc(C(c3ccccc3)(c3ccccc3)c3ccccc3)cc2)C(=O)N1 (stereo not drawn) [Example 11.6, 3-[(4-tritylphenylamino)methyl]piperidine-2,6-dione]	–	–	221 to 225 °C	–
CC(=O)c1cccc(NCC2CCC(=O)NC2=O)c1 (stereo not drawn) [Example 11.9, 3-[(3-acetylphenylamino)methyl]piperidine-2,6-dione]	–	–	129 to 132 °C	–
CN(CC1CCC(=O)NC1=O)c1ccccc1 (stereo not drawn) [Example 11.10, 3-[(N-methyl-N-phenylamino)methyl]piperidine-2,6-dione]	–	–	132 to 134 °C	–
COc1ccc(NCC2CCC(=O)NC2=O)cc1 (stereo not drawn) [Example 11.13, 3-[(4-methoxyphenylamino)methyl]piperidine-2,6-dione]	–	–	131 to 134 °C	–
NC(=O)c1ccccc1NCC1CCC(=O)NC1=O (stereo not drawn) [Example 11.15, 2-[(2,6-dioxopiperidin-3-ylmethyl)amino]benzamide]	–	–	203 to 206 °C	–
CC(=O)c1ccc(NCC2CCC(=O)NC2=O)cc1 (stereo not drawn) [Example 11.16, 3-[(4-acetylphenylamino)methyl]piperidine-2,6-dione]	–	–	160 °C	–
O=C1CCC(CNc2cccc(C(=O)c3ccccc3)c2)C(=O)N1 (stereo not drawn) [Example 11.17, 3-[(3-benzoylphenylamino)methyl]piperidine-2,6-dione]	–	–	152 to 158 °C	–
O=C1CCC(CSCCc2ccccc2)C(=O)N1 (stereo not drawn) [Example 13.2, 3-phenethylsulfanylmethyl piperidine-2,6-dione]	–	–	78 °C	–
COC(=O)c1ccccc1SCC1CCC(=O)NC1=O (stereo not drawn) [Example 13.3, 2-(2,6-dioxopiperidin-3-ylmethyl)sulfanyl) methyl benzoate]	6.0	50	–	–
CC(=O)Nc1ccccc1CNC1CCC(=O)NC1=O (stereo not drawn) [Example 16]	3.0	95	–	–
O=CNc1ccccc1CNC1CCC(=O)NC1=O (stereo not drawn) [Example 17, N-{2-[(2,6-dioxopiperidin-3-ylamino)methyl]phenyl}Formamide]	–	98	–	0.02 (≈ 0.0765 µM)
COC(=O)c1cc(SCC2CCC(=O)NC2=O)ccc1[N+](=O)[O-] (stereo not drawn) [Example 18, 3-(2,6-dioxopiperidin-3-ylmethylsulfanyl)-6-nitro Methylbenzoate]	3.0	57	–	–
COC(=O)c1cc(SCC2CCC(=O)NC2=O)ccc1N (stereo not drawn) [Example 19, 2-amino-5-(2,6-dioxopiperidin-3-ylmethylsulfanyl) methyl benzoate]	5.0	66	–	–
{2-[(3S)-(2,6-dioxopiperidin-3-ylamino)methyl]benzoylamino}methyl acetate [Example 8.2]	1.8	70	–	–
